A short description of data set [1]: Release of aminoglycosides from coatings on pure titanium test discs. The format is physicochemical. As to conditions: for Freisetzungsrate von Gentamicin-Base (time course) / initiale Freisetzung von Gentamicin-Base: coated titanium disc, 100 µg Gentamicin-Base per cm^2, 1 ml isotonic saline, 37 °C; for Freisetzungsrate von Gentamicin-Base (time course): 21 d, sampling at 1, 2, 3, 4, 7, 14, 21 days; for Freisetzungsrate von Gentamicin-Base (time course) / Wirkstofffreisetzung von beschichteten Titanoberflächen: Fig. 1; for initiale Freisetzung von Gentamicin-Base: Fig. 1, start of release; for Wirkstofffreisetzung von beschichteten Titanoberflächen: compared with Gentamicin-Palmitat. The text has this:
Zur Untersuchung der Freisetzung von Aminoglykosiden aus Beschichtungen werden runde Probekörper aus Reintitan (Grade 4) mit einem Durchmesser von 11 mm verwendet. Für die Beschichtungen werden folgende Aminoglycosid-Verbindungen verwendet: Gentamicin-Palmitat, Gentamicin-Dodecylphosphat und Gentamicin-Octadecylphosphonsäure.
Umsetzung von Gentamicin mit Palmitat im molaren Verhältnis 1:4. Umsetzung von Gentamicin mit Dodecylphosphat bzw. Octadecylphosphonat im molaren Verhältnis 1:3.
Lösung von Gentamicin-Palmitat, Gentamicin-Dodecylphosphat und Gentamicin-Octadecylphosphonsäure in Ethanol (Konzentration 15-25 mg/ml). Auf die Oberfläche wurden unter sterilen Bedingungen 100 µg Gentamicin-Base pro cm^2 aufgetragen. Trocknen der Beschichtung (4 h bei Raumtemperatur).
Inkubation der beschichteten Probekörper in 1 ml isotonischer Kochsalzlösung über eine Zeitdauer von 21 d bei 37 °C. Zu festgelegten Zeitpunkten (1, 2, 3, 4, 7, 14 und 21 Tagen) werden die Überstände abgenommen und die Probekörper in neuer isotonischer Kochsalzlösung weiter inkubiert.
Der Gehalt an Gentamicin wurde im Hemmhoftest mit Bacillus subtilis (ATCC 6633) bestimmt.
Die gemittelte Menge der freigesetzten Gentamicin-Base aus diesen Gentamicin-Salzen ist in Fig. 1 dargestellt.

Another data set concerns MC 3T3-E1-Zellen. The class given is cell-based, Maus. The method, then: Für die Untersuchungen der Cytokompatibilität der aminoglykosidhaltigen Beschichtungen werden runde, sandgestrahlte Probekörper aus Reintitan mit einem Durchmesser von 11 mm mit Gentamicin-Palmitat, Gentamicin-Dodecylphosphat bzw. Gentamicin-Octadecylphosphonsäure mit einem Gehalt von 100 µg Gentamicn-Base pro cm^2, wie in Beispiel 30 beschrieben, beschichtet.
Die Probekörper werden nach dem Trocknen der Beschichtung in Mikrotiterplatten überführt und mit einer definierten Anzahl von MC 3T3-E1-Zellen (Maus-Präosteoblasten-Zelllinie, 25.000 Zellen/ml) besiedelt.
Nach einer Inkubationszeit von 4 Tagen erfolgt die Vitalfärbung mit einer Mischung aus Fluoresceindiacetat (FDA) und GelRed®.
Fig. 2 zeigt die Vitalitätsbestimmung der Zellen mittels Auflicht-Fluoreszenzmikroskopie: Gentamicin-Palmitat (A), Gentamicin-Dodecylphosphat (B), Gentamicin-Octadecylphosphat (C).

As for Gentamicin-Dodecylphosphat, in data set [1], the “Freisetzungsrate von Gentamicin-Base (time course)” value is recorded as “bleibt bis Tag 7 konstant und fällt dann nur schwach ab”, the “initiale Freisetzung von Gentamicin-Base” value is listed as “niedrigere Freisetzungsrate von Gentamicin-Base als das Gentamicin-Palmitat” and the “Wirkstofffreisetzung von beschichteten Titanoberflächen” value was “retardierende Wirkstofffreisetzung”. In the data set with MC 3T3-E1-Zellen, the Zytotoxizität result is “signifikant geringere Zytotoxizität”.

As for Gentamicin-Octadecylphosphonsäure, in data set [1], the “Freisetzungsrate von Gentamicin-Base (time course)” value is recorded as “bleibt von Tag 2 bis Tag 14 konstant”, the “initiale Freisetzung von Gentamicin-Base” value is recorded as “niedrigste initiale Freisetzung von Gentamicin-Base” and the “Wirkstofffreisetzung von beschichteten Titanoberflächen” value is listed as “retardierende Wirkstofffreisetzung”.

In the case of “Gentamicin-Palmitat [reference compound]”, in data set [1], the “Freisetzungsrate von Gentamicin-Base (time course)” value is reported as “bis zum vierten Freisetzungstag stark abnimmt” and the “initiale Freisetzung von Gentamicin-Base” value was “initial hohen Freisetzung der Gentamicin-Base (Burst release)”. Also, the Zellzahlen result with MC 3T3-E1-Zellen was “niedrigsten Zellzahlen”.
